Measured values reported in US20220242870A1, “HETEROCYCLE-FUSED PYRIMIDINE DERIVATIVE AND USE THEREOF” (VORONOI Inc., priority 2019, published 2022).

Columns and labels:
[1] = target: T1, human FLT3-ITD enzyme (Homo sapiens, UniProt P36888); experiment: FLT3 enzyme inhibitory ability (ADP-Glo kinase assay); type: biochemical; settings: human FLT3-ITD enzyme 10 ng, ATP 10 μM, 25° C. 1 hour
T1 sequence (P36888 1-993): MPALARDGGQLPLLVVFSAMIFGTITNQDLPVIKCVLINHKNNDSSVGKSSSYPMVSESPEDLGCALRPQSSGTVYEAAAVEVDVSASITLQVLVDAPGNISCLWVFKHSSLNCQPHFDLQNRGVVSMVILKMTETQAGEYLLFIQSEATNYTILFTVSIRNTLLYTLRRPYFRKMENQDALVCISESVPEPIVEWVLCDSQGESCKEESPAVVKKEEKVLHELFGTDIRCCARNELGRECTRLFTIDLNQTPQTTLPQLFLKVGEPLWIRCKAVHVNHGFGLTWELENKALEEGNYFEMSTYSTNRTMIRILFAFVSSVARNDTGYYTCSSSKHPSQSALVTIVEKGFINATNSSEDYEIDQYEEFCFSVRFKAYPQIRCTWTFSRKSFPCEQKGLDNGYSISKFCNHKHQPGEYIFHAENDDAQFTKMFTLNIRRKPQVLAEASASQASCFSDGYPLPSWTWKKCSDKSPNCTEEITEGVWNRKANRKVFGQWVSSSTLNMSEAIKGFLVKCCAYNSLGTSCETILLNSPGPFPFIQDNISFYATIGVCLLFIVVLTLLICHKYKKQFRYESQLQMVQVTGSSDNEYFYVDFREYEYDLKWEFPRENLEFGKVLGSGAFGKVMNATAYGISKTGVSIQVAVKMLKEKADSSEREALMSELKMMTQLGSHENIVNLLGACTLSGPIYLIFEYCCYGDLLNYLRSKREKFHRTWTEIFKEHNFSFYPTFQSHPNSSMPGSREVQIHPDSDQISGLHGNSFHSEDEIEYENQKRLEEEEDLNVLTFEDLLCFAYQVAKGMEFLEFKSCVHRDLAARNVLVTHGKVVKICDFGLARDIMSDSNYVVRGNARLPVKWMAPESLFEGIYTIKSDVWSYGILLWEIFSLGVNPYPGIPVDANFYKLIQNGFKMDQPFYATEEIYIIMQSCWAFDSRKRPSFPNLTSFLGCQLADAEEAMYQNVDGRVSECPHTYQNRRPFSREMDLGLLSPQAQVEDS
Method in brief: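 Purified human FLT3-ITD (10 ng) with 10 μM ATP and specific substrate in 40 mM Tris-HCl pH 7.4, 20 mM MgCl2, 0.5 mg/mL BSA, 50 μM DTT, 1 h at 25 °C. ADP formation read by ADP-Glo luminescence; IC50 (nM) versus solvent-treated control.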

[2] = target: T2, human GST-HPK1 (1-346) (Homo sapiens, UniProt Q92918); experiment: HPK1 enzyme inhibitory ability (ADP-Glo kinase assay); type: biochemical; settings: human GST-HPK1 3 ng, ATP 3 uM, 25° C. 2 hours
T2 construct: purified human GST-HPK1 (1-346, Signalchem) enzyme; purchased Signalchem
T2 sequence (Q92918 1-346): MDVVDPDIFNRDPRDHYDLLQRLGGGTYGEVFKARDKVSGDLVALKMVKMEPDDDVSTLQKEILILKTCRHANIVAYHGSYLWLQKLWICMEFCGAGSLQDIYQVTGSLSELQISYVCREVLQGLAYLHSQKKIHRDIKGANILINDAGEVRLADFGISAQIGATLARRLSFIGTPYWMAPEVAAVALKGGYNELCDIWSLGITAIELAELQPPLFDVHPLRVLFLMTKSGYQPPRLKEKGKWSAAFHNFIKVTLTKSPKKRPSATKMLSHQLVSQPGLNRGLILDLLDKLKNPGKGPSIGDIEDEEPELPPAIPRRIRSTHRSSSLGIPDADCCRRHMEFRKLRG
Method in brief: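 Human GST-HPK1(1-346), 3 ng, reacted with 3 uM ATP and specific substrate in 40 mM Tris-HCl pH 7.4, 20 mM MgCl2, 0.5 mg/mL BSA, 50 uM DTT for 2 h at 25° C. ADP-Glo luminescence read; IC50 (nM) relative to untreated solvent control.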

[3] = test system: MV4-11 cells; experiment: AML cell proliferation inhibitory activity (CellTiter-Glo); type: cell-based; settings: Homo sapiens, 72 hours
Method in brief: (§1)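 RS4;11 and MV4-11 cells in RPMI-1640 with 10% FBS, seeded 24 h before treatment, then exposed 72 h to 12 three-fold dilutions (0.3 nM–50 μM final). Viability by CellTiter-Glo luminescence relative to solvent control; GI50 from triplicate experiments.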

[4] = test system: RS4;11 cells; experiment: as above; type: cell-based; settings: Homo sapiens, 72 hours
Method in brief: as §1

[5] = test system: MCF-7 cells; experiment: Breast cancer cell line proliferation inhibitory activity (CellTiter-Glo 2.0); type: cell-based; settings: Homo sapiens, MCF7, 120 hours
Method in brief: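 MCF-7 cells exposed to a 12-point, 3-fold dilution series (final 0.00005–10 μM) for 120 h at 37 °C. Viability read by CellTiter-Glo 2.0 luminescence, expressed as percent of vehicle-treated cells. GI50 (nM) derived from the curves.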

## CN1CCN(C2CCN(c3ccc(Nc4nc(N5N=CCC5c5ccccc5)c5sccc5n4)cc3)CC2)CC1 (centres unmarked) [Example 7, N-(4-(4-(4-methylpiperazin-1-yl)piperidin-1-yl)phenyl)-4-(5-phenyl-4,5-dihydro-1H-pyrazol-1-yl)thieno[3,2-d]pyrimidin-2-amine]
[1]
  IC50: ≥ 250 nM
[2]
  IC50: > 500 nM
[3]
  GI50: 250 to 500 nM
[4]
  GI50: > 500 nM
[5]
  GI50: > 500 nM

## CN1CCN(C(=O)c2ccc(Nc3nc(N4N=CCC4c4ccccc4)c4sccc4n3)cc2)CC1 (centres unmarked) [Example 11, (4-methylpiperazin-1-yl)(4-((4-(5-phenyl-4,5-dihydro-1H-pyrazol-1-yl)thieno[3,2-d]pyrimidin-2-yl)amino)phenyl)methanone]
[1]
  IC50: > 500 nM
[2]
  IC50: > 500 nM
[3]
  GI50: > 500 nM
[4]
  GI50: > 500 nM
[5]
  GI50: > 500 nM

## C[C@@H]1CN(Cc2cc(Nc3nc(N4N=CCC4c4ccccc4)c4sccc4n3)cc(C3CC3)c2)C[C@H](C)N1 (stereo partly drawn) [Example 12, N-(3-cyclopropyl-5-(((3R,5S)-3,5-dimethylpiperazin-1-yl)methyl)phenyl)-4-(5-phenyl-4,5-dihydro-1H-pyrazol-1-yl)thieno[3,2-d]pyrimidin-2-amine]
[1]
  IC50: > 500 nM
[2]
  IC50: > 500 nM
[3]
  GI50: 250 to 500 nM
[4]
  GI50: > 500 nM
[5]
  GI50: > 500 nM

## CN1CCC(Oc2ccc(Nc3nc(N4N=CCC4c4ccccc4)c4sccc4n3)cc2)CC1 (centres unmarked) [Example 13, N-(4-((1-methylpiperidin-4-yl)oxy)phenyl)-4-(5-phenyl-4,5-dihydro-1H-pyrazol-1-yl)thieno[3,2-d]pyrimidin-2-amine]
[1]
  IC50: > 500 nM
[2]
  IC50: > 500 nM
[3]
  GI50: 250 to 500 nM
[4]
  GI50: > 500 nM
[5]
  GI50: > 500 nM

## CN1CCC(NC(=O)c2ccc(Nc3nc(N4N=CCC4c4ccccc4)c4sccc4n3)cc2)CC1 (centres unmarked) [Example 19, N-(1-methylpiperidin-4-yl)-4-((4-(5-phenyl-4,5-dihydro-1H-pyrazol-1-yl)thieno[3,2-d]pyrimidin-2-yl)amino)benzamide]
[1]
  IC50: ≥ 250 nM
[2]
  IC50: > 500 nM
[3]
  GI50: ≥ 250 nM
[4]
  GI50: > 500 nM
[5]
  GI50: > 500 nM

## CN1Cc2cc(Nc3nc(N4N=CCC4c4ccccc4)c4sccc4n3)ccc2C1=O (centres unmarked) [Example 25, 2-methyl-5-((4-(5-phenyl-4,5-dihydro-1H-pyrazol-1-yl)thieno[3,2-d]pyrimidin-2-yl)amino)isoindolin-1-one]
[1]
  IC50: > 500 nM
[2]
  IC50: > 500 nM
[3]
  GI50: 250 to 500 nM
[4]
  GI50: > 500 nM
[5]
  GI50: > 500 nM

## CN(C)CCCn1cc(Nc2nc(N3N=CCC3c3ccccc3)c3sccc3n2)cn1 (centres unmarked) [Example 26, N-(1-(3-(dimethylamino)propyl)-1H-pyrazol-4-yl)-4-(5-phenyl-4,5-dihydro-1H-pyrazol-1-yl)thieno[3,2-d]pyrimidin-2-amine]
[1]
  IC50: > 500 nM
[2]
  IC50: > 500 nM
[3]
  GI50: > 500 nM
[4]
  GI50: > 500 nM
[5]
  GI50: > 500 nM

## C1=NN(c2nc(Nc3cnn(C4CCNCC4)c3)nc3ccsc23)C(c2ccccc2)C1 (centres unmarked) [Example 28, 4-(5-phenyl-4,5-dihydro-1H-pyrazol-1-yl)-N-(1-(piperidin-4-yl)-1H-pyrazol-4-yl)thieno[3,2-d]pyrimidin-2-amine]
[1]
  IC50: ≥ 250 nM
[2]
  IC50: > 500 nM
[3]
  GI50: ≥ 250 nM
[4]
  GI50: > 500 nM
[5]
  GI50: > 500 nM

## CN1CCC(n2cc(Nc3nc(N4N=CCC4c4ccccc4)c4sccc4n3)cn2)CC1 (centres unmarked) [Example 29, N-(1-(1-methylpiperidin-4-yl)-1H-pyrazol-4-yl)-4-(5-phenyl-4,5-dihydro-1H-pyrazol-1-yl)thieno[3,2-d]pyrimidin-2-amine]
[1]
  IC50: > 500 nM
[2]
  IC50: > 500 nM
[3]
  GI50: 250 to 500 nM
[4]
  GI50: > 500 nM
[5]
  GI50: > 500 nM

## CN1CCN(c2ccc(Nc3nc(N4N=CCC4C4CCCCC4)c4sccc4n3)cc2)CC1 (centres unmarked) [Example 30, 4-(5-cyclohexyl-4,5-dihydro-1H-pyrazol-1-yl)-N-(4-(4-methylpiperazin-1-yl)phenyl)thieno[3,2-d]pyrimidin-2-amine]
[1]
  IC50: > 500 nM
[2]
  IC50: > 500 nM
[3]
  GI50: 250 to 500 nM
[4]
  GI50: ≥ 250 nM
[5]
  GI50: > 500 nM

## CN1CCN(c2ccc(Nc3nc(N4N=CCC4c4ccc5ccccc5c4)c4sccc4n3)cc2)CC1 (centres unmarked) [Example 31, N-(4-(4-methylpiperazin-1-yl)phenyl)-4-(5-(naphthalen-2-yl)-4,5-dihydro-1H-pyrazol-1-yl)thieno[3,2-d]pyrimidin-2-amine]
[1]
  IC50: > 500 nM
[2]
  IC50: > 500 nM
[3]
  GI50: > 500 nM
[4]
  GI50: > 500 nM
[5]
  GI50: > 500 nM

## CN1CCN(c2ccc(Nc3nc(N4N=CCC4c4cccnc4)c4sccc4n3)cc2)CC1 (centres unmarked) [Example 34, N-(4-(4-methylpiperazin-1-yl)phenyl)-4-(5-(pyridin-3-yl)-4,5-dihydro-1H-pyrazol-1-yl)thieno[3,2-d]pyrimidin-2-amine]
[1]
  IC50: > 500 nM
[2]
  IC50: > 500 nM
[3]
  GI50: > 500 nM
[4]
  GI50: > 500 nM
[5]
  GI50: > 500 nM

## CN1CCN(c2ccc(Nc3nc(N4N=CCC4c4ccncc4)c4sccc4n3)cc2)CC1 (centres unmarked) [Example 35, N-(4-(4-methylpiperazin-1-yl)phenyl)-4-(5-(pyridin-4-yl)-4,5-dihydro-1H-pyrazol-1-yl)thieno[3,2-d]pyrimidin-2-amine]
[1]
  IC50: > 500 nM
[2]
  IC50: > 500 nM
[3]
  GI50: 250 to 500 nM
[4]
  GI50: > 500 nM
[5]
  GI50: > 500 nM

## CCN1CCN(C2CCN(c3ccc(Nc4nc(N5N=CCC5c5ccccc5)c5sccc5n4)cc3)CC2)CC1 (centres unmarked) [Example 37, N-(4-(4-(4-ethylpiperazin-1-yl)piperidin-1-yl)phenyl)-4-(5-phenyl-4,5-dihydro-1H-pyrazol-1-yl)thieno[3,2-d]pyrimidin-2-amine]
[1]
  IC50: 250 to 500 nM
[2]
  IC50: > 500 nM
[3]
  GI50: ≥ 250 nM
[4]
  GI50: > 500 nM
[5]
  GI50: > 500 nM

## CN(C)C1CCN(c2ccc(Nc3nc(N4N=CCC4c4ccccc4)c4sccc4n3)cc2)CC1 (centres unmarked) [Example 38, N-(4-(4-(dimethylamino)piperidin-1-yl)phenyl)-4-(5-phenyl-4,5-dihydro-1H-pyrazol-1-yl)thieno[3,2-d]pyrimidin-2-amine]
[1]
  IC50: ≥ 250 nM
[2]
  IC50: > 500 nM
[3]
  GI50: ≥ 250 nM
[4]
  GI50: > 500 nM
[5]
  GI50: > 500 nM

## CN(C)[C@@H]1CCN(c2ccc(Nc3nc(N4N=CCC4c4ccccc4)c4sccc4n3)cc2)C1 (stereo partly drawn) [Example 43, N-(4-((R)-3-(dimethylamino)pyrrolidin-1-yl)phenyl)-4-(5-phenyl-4,5-dihydro-1H-pyrazol-1-yl)thieno[3,2-d]pyrimidin-2-amine]
[1]
  IC50: 250 to 500 nM
[2]
  IC50: > 500 nM
[3]
  GI50: ≥ 250 nM
[4]
  GI50: > 500 nM
[5]
  GI50: > 500 nM
